Like-named read-outs stand apart in the source and are kept apart here.
Columns and labels:
Experiment in all cases: KINOMEscan in vitro binding to 468 labeled protein kinases
[1] = molecular target: T1, protein kinases (Homo sapiens, UniProt P00519, T315I); settings: read-out: Test compound/solvent control (%); for remaining binding at 0.001 µM: 1 nM; for remaining binding at 0.01 µM: 10 nM; for remaining binding at 1 µM: 1000 nM
T1 construct: purchased Discovery X company (USA), KINOMEscan screening platform
Procedure, shortened: (§1)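 Duplicate in vitro binding reactions at 1 nM, 10 nM and 1000 nM compound against a panel of 468 labelled protein kinases (KINOMEscan). Binding expressed relative to solvent control as a percentage, stronger affinity giving a lower value.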

[2] = molecular target: T2, protein kinases (Homo sapiens, UniProt P22455); settings: FGFR4, read-out: Test compound/solvent control (%)
T2 construct: purchased Discovery X company (USA), KINOMEscan screening platform
Procedure, shortened: as §1

[3] = molecular target: T3, protein kinases (Homo sapiens, UniProt Q9UKE5); settings: TNIK, read-out: Test compound/solvent control (%)
T3 construct: purchased Discovery X company (USA), KINOMEscan screening platform
Procedure, shortened: as §1

[4] = molecular target: T4, protein kinases (Homo sapiens, UniProt Q02763); settings: TIE2, read-out: Test compound/solvent control (%)
T4 construct: purchased Discovery X company (USA), KINOMEscan screening platform
Procedure, shortened: as §1

[5] = molecular target: T5, protein kinases (Homo sapiens, UniProt P00533, L858R); settings: EGFR(L858R)
T5 construct: purchased Discovery X company (USA), KINOMEscan screening platform
Procedure, shortened: as §1

[6] = molecular target: T6, protein kinases (Homo sapiens, UniProt P00533, L858R/T790M); settings: EGFR(L858R,T790M)
T6 construct: purchased Discovery X company (USA), KINOMEscan screening platform
Procedure, shortened: as §1

[7] = molecular target: T7, protein kinases (Homo sapiens, UniProt P30530); settings: AXL, read-out: Test compound/solvent control (%)
T7 construct: purchased Discovery X company (USA), KINOMEscan screening platform
T7 sequence (P30530 26-894): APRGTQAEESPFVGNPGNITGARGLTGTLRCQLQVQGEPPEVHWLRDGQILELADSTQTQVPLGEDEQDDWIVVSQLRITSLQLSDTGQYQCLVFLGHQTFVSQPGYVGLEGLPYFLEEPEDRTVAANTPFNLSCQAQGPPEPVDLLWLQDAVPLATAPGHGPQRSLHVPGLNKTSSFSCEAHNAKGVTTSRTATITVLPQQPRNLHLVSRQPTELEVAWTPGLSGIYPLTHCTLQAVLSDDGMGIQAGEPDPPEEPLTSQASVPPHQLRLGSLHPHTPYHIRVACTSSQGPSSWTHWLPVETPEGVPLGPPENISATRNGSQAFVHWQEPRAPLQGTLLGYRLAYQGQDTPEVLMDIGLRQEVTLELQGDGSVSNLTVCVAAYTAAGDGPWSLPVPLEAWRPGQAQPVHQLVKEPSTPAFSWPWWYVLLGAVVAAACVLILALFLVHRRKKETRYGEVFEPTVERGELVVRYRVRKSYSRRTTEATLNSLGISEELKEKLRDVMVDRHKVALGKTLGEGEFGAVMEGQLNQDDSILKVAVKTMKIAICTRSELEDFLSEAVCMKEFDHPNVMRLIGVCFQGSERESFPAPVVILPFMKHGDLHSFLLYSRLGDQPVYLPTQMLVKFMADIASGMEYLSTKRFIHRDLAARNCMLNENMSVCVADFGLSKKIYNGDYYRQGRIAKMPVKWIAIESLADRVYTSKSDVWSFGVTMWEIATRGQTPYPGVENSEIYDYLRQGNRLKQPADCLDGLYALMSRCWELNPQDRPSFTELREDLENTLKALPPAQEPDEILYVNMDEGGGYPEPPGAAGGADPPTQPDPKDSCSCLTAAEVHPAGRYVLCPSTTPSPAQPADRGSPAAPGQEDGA
Procedure, shortened: as §1

[8] = molecular target: T8, protein kinases (Homo sapiens, UniProt P00519, F317I); settings: read-out: Test compound/solvent control (%); for remaining binding at 0.001 µM: 1 nM; for remaining binding at 0.01 µM: 10 nM; for remaining binding at 1 µM: 1000 nM
T8 construct: purchased Discovery X company (USA), KINOMEscan screening platform
Procedure, shortened: as §1

T3 sequence (Q9UKE5 whole entry): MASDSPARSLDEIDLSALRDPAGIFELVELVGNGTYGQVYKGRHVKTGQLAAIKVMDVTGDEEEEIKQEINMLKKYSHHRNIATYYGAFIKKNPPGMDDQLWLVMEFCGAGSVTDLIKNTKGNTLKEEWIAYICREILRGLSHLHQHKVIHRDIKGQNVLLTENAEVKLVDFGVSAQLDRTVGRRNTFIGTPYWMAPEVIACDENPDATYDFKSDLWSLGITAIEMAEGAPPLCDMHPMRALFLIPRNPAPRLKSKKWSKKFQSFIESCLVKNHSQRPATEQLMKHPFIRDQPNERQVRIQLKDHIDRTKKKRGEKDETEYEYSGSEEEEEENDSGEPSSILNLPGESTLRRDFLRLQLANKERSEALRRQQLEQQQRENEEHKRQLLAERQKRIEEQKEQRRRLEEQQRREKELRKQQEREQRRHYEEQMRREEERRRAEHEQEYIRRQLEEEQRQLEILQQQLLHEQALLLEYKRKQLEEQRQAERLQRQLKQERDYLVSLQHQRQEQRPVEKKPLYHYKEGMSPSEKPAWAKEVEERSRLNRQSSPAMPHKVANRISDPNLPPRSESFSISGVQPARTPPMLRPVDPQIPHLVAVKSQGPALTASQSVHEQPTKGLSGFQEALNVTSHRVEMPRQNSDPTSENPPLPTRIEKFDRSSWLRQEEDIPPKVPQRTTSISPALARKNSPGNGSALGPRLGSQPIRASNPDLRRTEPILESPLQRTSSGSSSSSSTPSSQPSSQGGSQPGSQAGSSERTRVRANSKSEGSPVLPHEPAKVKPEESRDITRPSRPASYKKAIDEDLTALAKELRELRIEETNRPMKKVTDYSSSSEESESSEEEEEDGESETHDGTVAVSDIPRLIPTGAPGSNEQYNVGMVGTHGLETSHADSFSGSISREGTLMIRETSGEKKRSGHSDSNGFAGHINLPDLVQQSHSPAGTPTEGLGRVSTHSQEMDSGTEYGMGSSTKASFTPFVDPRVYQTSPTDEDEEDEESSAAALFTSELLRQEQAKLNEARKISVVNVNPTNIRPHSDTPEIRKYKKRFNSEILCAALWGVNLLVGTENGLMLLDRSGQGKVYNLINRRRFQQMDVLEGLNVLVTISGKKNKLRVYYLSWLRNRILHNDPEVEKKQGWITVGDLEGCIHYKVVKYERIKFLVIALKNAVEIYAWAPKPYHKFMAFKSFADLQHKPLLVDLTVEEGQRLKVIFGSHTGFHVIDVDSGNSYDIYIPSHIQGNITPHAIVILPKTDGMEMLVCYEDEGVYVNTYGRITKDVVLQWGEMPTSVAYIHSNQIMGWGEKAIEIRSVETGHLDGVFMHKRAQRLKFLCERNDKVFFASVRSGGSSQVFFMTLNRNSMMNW
T6 sequence (P00533 25-1210 T790M/L858R): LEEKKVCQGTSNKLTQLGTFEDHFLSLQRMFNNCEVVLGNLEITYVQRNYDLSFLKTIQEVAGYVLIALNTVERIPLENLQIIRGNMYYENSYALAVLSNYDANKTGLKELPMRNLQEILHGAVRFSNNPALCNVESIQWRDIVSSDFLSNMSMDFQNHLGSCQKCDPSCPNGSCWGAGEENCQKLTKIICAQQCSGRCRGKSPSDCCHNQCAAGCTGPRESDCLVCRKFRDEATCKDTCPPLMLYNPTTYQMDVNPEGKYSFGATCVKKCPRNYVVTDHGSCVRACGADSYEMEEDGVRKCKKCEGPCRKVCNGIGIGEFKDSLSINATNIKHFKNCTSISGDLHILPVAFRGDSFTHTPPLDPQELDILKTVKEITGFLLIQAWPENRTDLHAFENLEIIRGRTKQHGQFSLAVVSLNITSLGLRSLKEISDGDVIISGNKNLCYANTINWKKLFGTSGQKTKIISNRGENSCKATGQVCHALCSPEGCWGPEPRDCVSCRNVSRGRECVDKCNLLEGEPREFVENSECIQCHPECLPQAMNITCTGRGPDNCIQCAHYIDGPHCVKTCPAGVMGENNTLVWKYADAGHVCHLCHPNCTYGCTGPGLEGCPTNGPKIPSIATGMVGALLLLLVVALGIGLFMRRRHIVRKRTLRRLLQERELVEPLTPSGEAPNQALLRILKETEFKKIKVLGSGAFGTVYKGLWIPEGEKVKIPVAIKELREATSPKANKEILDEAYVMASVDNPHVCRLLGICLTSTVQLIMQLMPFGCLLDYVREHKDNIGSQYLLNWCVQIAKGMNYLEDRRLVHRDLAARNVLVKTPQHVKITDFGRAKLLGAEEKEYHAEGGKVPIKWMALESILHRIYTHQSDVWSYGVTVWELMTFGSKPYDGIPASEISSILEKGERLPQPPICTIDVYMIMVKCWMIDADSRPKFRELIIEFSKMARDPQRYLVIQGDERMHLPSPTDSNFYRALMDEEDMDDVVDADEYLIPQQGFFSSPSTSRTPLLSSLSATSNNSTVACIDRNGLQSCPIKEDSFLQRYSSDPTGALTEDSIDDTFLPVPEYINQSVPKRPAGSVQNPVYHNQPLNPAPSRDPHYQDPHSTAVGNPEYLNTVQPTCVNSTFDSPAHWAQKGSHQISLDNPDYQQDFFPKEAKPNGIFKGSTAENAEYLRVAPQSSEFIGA
T5 sequence (P00533 25-1210 L858R): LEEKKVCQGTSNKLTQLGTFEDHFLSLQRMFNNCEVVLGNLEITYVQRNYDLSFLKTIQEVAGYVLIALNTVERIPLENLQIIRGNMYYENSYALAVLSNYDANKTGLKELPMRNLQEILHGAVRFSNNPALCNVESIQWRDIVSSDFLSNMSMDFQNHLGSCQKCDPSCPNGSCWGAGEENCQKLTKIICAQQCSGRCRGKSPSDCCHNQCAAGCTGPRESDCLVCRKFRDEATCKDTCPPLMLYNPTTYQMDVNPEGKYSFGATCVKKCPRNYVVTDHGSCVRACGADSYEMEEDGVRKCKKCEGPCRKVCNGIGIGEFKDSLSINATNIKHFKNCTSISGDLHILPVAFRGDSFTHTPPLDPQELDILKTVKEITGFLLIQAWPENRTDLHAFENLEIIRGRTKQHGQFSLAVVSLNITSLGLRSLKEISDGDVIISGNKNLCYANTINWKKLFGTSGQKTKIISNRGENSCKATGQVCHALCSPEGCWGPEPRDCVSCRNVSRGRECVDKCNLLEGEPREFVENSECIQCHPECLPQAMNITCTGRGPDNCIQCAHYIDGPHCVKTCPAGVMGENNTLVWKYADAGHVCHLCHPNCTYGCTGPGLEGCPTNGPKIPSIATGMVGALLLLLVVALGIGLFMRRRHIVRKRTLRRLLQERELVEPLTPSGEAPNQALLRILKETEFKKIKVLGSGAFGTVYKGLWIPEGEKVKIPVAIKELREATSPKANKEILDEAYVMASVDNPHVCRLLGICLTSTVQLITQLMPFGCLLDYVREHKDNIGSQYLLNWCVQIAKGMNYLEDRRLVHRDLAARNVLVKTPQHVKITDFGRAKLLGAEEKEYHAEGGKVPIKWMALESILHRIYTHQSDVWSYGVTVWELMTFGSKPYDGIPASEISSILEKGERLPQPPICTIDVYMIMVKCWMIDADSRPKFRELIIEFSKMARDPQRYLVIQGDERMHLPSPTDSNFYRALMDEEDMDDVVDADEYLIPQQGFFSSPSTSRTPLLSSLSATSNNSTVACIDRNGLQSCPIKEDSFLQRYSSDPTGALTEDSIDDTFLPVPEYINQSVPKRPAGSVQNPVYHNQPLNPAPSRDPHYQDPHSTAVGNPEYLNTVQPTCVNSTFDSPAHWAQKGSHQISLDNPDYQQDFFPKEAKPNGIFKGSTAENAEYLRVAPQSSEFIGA
T2 sequence (P22455 22-802): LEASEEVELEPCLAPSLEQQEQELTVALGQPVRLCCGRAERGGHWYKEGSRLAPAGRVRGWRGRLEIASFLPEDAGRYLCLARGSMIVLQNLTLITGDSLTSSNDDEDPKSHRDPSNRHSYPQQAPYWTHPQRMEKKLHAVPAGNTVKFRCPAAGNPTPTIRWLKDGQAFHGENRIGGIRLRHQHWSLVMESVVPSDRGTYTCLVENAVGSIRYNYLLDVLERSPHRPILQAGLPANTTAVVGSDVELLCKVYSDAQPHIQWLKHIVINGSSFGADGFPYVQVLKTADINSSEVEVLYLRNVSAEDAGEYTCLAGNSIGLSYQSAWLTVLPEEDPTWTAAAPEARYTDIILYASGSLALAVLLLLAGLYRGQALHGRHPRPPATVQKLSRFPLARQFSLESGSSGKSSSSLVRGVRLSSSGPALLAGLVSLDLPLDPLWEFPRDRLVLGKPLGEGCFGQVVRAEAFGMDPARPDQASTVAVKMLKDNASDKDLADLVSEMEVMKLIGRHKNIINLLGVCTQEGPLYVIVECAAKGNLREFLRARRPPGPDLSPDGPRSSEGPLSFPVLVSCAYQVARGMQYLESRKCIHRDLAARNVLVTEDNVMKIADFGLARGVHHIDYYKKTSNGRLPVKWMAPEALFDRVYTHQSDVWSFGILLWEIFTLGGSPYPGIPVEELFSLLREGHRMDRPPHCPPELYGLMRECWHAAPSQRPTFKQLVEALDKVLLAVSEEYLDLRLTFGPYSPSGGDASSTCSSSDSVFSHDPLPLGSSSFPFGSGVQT

SMILES: COCCOc1cc2nccc(Oc3ccc(NC(=O)Nc4cc(C(C)(C)C)n[nH]4)c(Cl)c3)c2cc1NC(C)=O [Compound 66, N-[4-{4-[3-(5-tert-butyl-2H-pyrazol-3-yl)-ureido]-3-chloro-phenoxy}-7-(2-methoxy-ethoxy)-quinolin-6-yl]-acetamide]
- remaining binding at 0.001 µM ([1]; ABL1(T315I)-phosphorylated): 100%
- remaining binding at 0.01 µM ([1]; ABL1(T315I)-phosphorylated): 34%
- remaining binding at 1 µM ([1]; ABL1(T315I)-phosphorylated): 0.45%
- remaining binding at 0.001 µM ([1]; ABL1(T315I)-unphosphorylated): 96%
- remaining binding at 0.01 µM ([1]; ABL1(T315I)-unphosphorylated): 32%
- remaining binding at 1 µM ([1]; ABL1(T315I)-unphosphorylated): 0.15%
- remaining binding at 0.001 µM ([2]; 1 nM): 93%
- remaining binding at 0.01 µM ([2]; 10 nM): 74%
- remaining binding at 1 µM ([2]; 1000 nM): 0%
- remaining binding at 0.001 µM ([3]; 1 nM): 44%
- remaining binding at 0.01 µM ([3]; 10 nM): 6.4%
- remaining binding at 1 µM ([3]; 1000 nM): 7%
- remaining binding at 0.001 µM ([4]; 1 nM): 59%
- remaining binding at 0.01 µM ([4]; 10 nM): 3.8%
- remaining binding at 1 µM ([4]; 1000 nM): 0.95%
- Test compound/solvent control (%) ([5]; 1 nM): 87%
- Test compound/solvent control (%) ([5]; 10 nM): 28%
- Test compound/solvent control (%) ([5]; 1000 nM): 0%
- Test compound/solvent control (%) ([6]; 1 nM): 64%
- Test compound/solvent control (%) ([6]; 10 nM): 21%
- Test compound/solvent control (%) ([6]; 1000 nM): 0.7%
- remaining binding at 0.001 µM ([7]; 1 nM): 53%
- remaining binding at 0.01 µM ([7]; 10 nM): 7.2%
- remaining binding at 1 µM ([7]; 1000 nM): 4.1%
- remaining binding at 0.001 µM ([8]; ABL1(F317I)-phosphorylated): 100%
- remaining binding at 0.01 µM ([8]; ABL1(F317I)-phosphorylated): 31%
- remaining binding at 1 µM ([8]; ABL1(F317I)-phosphorylated): 15%
- remaining binding at 0.001 µM ([8]; ABL1(F317I)-unphosphorylated): 83%
- remaining binding at 0.01 µM ([8]; ABL1(F317I)-unphosphorylated): 17%
- remaining binding at 1 µM ([8]; ABL1(F317I)-unphosphorylated): 0.25%

From patent US10800741B2 (ANCUREALL PHARMACEUTICAL (SHANGHAI) CO., LTD., priority 2017, dated 2020)
